# Experimental data reported in US20150079029A1, “METHODS AND COMPOSITIONS FOR INHIBITING ANGIOGENESIS” (Oncology Research International Limited, priority 2006, published 2015).
# Key:
# aortic explants = assay: Vessel growth (sprouts and branches) from mouse aortic explants in collagen gel; format: cell-based, C57BL6/J mice; settings: for Branches Mean / Sprouts Mean: 1 μL/mL DMSO, 6 days culture, 8 replicates
# Description: Three male C57BL6/J mice (9 weeks old) were sacrificed by CO2 asphyxiation and the blood harvested by heart puncture using a 29 gauge needle. The aorta was then dissected (from the aortic arch to the pleural/peritoneal interface) and placed in ice-cold DMEM supplemented with 10 mM Hepes and penicillin/streptomycin.
# The fibrous and adipose tissues surrounding the aorta were removed by microscopic dissection and the aorta flushed of blood using ice cold DMEM. The aorta was then longitudinally bisected and cut into approximately 1 mm squares. Individual pieces of aorta were embedded in a drop (20 μL) of collagen solution in the bottom of a well of a 24 well tissue culture plate. The plates were then placed at 37° C./5% CO2 for 10 minutes to polymerise the collagen into a gel. Media (0.3 mL) alone, containing DMSO or deltonin in DMSO was then added to each well to form a moat around the collagen gel.
# Only the central 8 wells of each 24 well plate were used for explant cultures to avoid differential gaseous exchange and evaporation rates between explant sample wells. The outer wells were filled with PBS.
# Nine groups of 8 replicates each were tested:
# The explants were then cultured at 37° C./5% CO2 in a humid incubator for 6 days. Explants were fixed at room temperature for 20 minutes by adding an equal volume (0.3 mL) of 4% paraformaldehyde in PBS to each well. After washing three times with HEPES-buffered saline (HBS, 150 mM NaCl, 10 mM HEPES) the explants were stained with 10 μg/ml FITC-BS-1 lectin conjugate (BS-1 lectin specifically binds mouse endothelial cells) in HBS overnight at 4° C. The following day the explants were washed three times with HBS. Vessel outgrowths from explants were visualised by fluorescence microscopy and photographs taken for data analysis. Multiple multidepth focus fluorescent images were photographed for each explant and the photographs processed using deconvolution software so that total vessel outgrowth for each explant could be determined Total cellular growth associated with each explant was also visualised by light microscopy using a dissecting microscope and documented by photography. For ease of visualisation and analysis a composite inverted black and white image was prepared from the multiple fluorescent images of the vessel outgrowths for each explant. The number of vessel sprouts and the number of vessel branches for each explant was then counted with the person counting being blinded to the identity of each sample. The results are summarised in Table 4, and shown graphically in FIG. 1.
# [1] = system: angiogenesis induced by bFGF in angiosponges; assay: AngioSponge assay: bFGF-induced neovascularisation of implanted gelfoam, CD31 staining; format: in vivo, C3H/Hej mice; settings: i.p. once daily for 10 days, dioscin 10, deltonin 10, trillin 60, prosapogenin A 20, sorafenib 60 mg/kg
# From the text: The AngioSponge™ assay enables slow release of agarose-captured growth factor, which stimulates endothelial cell proliferation and migration, and provides a tissue-like matrix for neovascularisation. The assay can be therefore be used to gauge the efficacy of treatments designed to inhibit angiogenesis, determined by counting blood vessels after CD31 immunohistochemical staining of endothelial cells (McCarty et al, International Journal of Oncology, 21:5-10, 2002).
# Gelfoams (Pharmacia & Upjohn) were cut into approximately 7×7×7 mm pieces, under sterile conditions, and pre-soaked over night with sterile phosphate buffered saline. The hydrated gelfoams were then partially dried. Growth factor (bFGF) was diluted to an initial concentration of 2 μg/mL in warm (37° C.) 0.4% agarose. The partially dried gelfoams were placed in the growth factor solution, or in warm 0.4% agarose without growth factor, and then transferred to a Petri dish containing warm 0.4% agarose (1:1 dilution, final growth factor concentration 1 μg/mL) for polymerisation and solidification.
# 70 female C3H/Hej mice were microchipped, weighed and randomised based on body weight into 7 groups with 10 mice per group. For implantation, the mice were anaesthetised by halothane inhalation. A small channel forged with a trocar needle between the 3rd and 4th mammary gland, the sponge was inserted to the full depth of the channel and the incision closed with a wound clip.
# The compounds were formulated in N-methylpyrrolidone (NMP):PEG300:Water (1:9:10, v/v). Dosing was established on the basis of in vitro IC50 data and preliminary toxicity studies. Compounds were administered daily by intraperitoneal injection, at a dosing volume of 10 mL/kg, once daily for the study period as shown in Table 5.
# Treatment was started when all the animals had recovered fully from anaesthesia, and continued for 10 days. On Day 11, the angiosponges were excised and snap frozen in liquid nitrogen with OCT for CD31 staining on frozen sections.
# CD31/PECAM-1 is an antigen present specifically on endothelial cells and can therefore be used as a marker for blood vessels. Frozen samples of the sponge were cryo-sectioned (12 μm), mounted on positively-charged Plus slides (Fisher Scientific), and air-dried for 30 minutes. Frozen sections were in turn fixed in cold acetone, acetone/chloroform (1:1, v/v), and acetone for 5 min each, and then washed with PBS (phosphate buffer saline). After blocking with PBS containing 5% normal horse serum and 1% normal goat serum, sections were incubated with PECAM-1 monoclonal rat anti-mouse CD31 antibody (1:5000 in blocking solution, PharMingen, San Diego, Calif.) for 4 hours at room temperature. The slides were then washed three times with PBS and incubated with adequate secondary anti-rat antibody. Positive reactions were visualized by incubating the slides in stable 3,3′-diaminobenzidine for 5-10 min. The sections were rinsed with distilled water, counter-stained with Gill's haematoxylin for 1 min, and mounted with Universal Mount (Research Genetics). […] Mouse placenta was used as a positive control. For quantification, 3 independent visual fields were chosen and positive stained spots or vessels with lumen were counted.
# The Percent Induction for a treatment is the difference in CD31 counts between the treatment (+bFGF) and the vehicle alone (no bFGF), divided by the difference in CD31 counts between the vehicle with bFGF and the vehicle alone (no bFGF), expressed as a percentage.
structure (smiles),measurement,setting,value
"C[C@@H]1CC[C@@]2(OC1)O[C@H]1C[C@H]3[C@@H]4CC=C5C[C@@H](O[C@@H]6O[C@H](CO)[C@@H](O[C@@H]7O[C@H](CO)[C@@H](O)[C@H](O)[C@H]7O)[C@H](O)[C@H]6O[C@@H]6O[C@@H](C)[C@H](O)[C@@H](O)[C@H]6O)CC[C@]5(C)[C@H]4CC[C@]3(C)[C@H]1[C@@H]2C [Deltonin, diosgenin Rha2, [Glc4], Glc]",Branches Mean,aortic explants; 0.01 μM deltonin,16
same,Sprouts Mean,aortic explants; 0.01 μM deltonin,11
same,Branches Mean,aortic explants; 0.03 μM deltonin,26
same,Sprouts Mean,aortic explants; 0.03 μM deltonin,18
same,Branches Mean,aortic explants; 0.1 μM deltonin,24
same,Sprouts Mean,aortic explants; 0.1 μM deltonin,18
same,Branches Mean,aortic explants; 0.3 μM deltonin,20
same,Sprouts Mean,aortic explants; 0.3 μM deltonin,16
same,Branches Mean,aortic explants; 1 μM deltonin,16
same,Sprouts Mean,aortic explants; 1 μM deltonin,13
same,Branches Mean,aortic explants; 3 μM deltonin,0
same,Sprouts Mean,aortic explants; 3 μM deltonin,0
same,Branches Mean,aortic explants; 10 μM deltonin,0
same,Sprouts Mean,aortic explants; 10 μM deltonin,0
same,vessel branches from aortic explants in comparison to DMSO treated control explant cultures,"aortic explants; at 10, 3 and 1 μM",significantly inhibited
same,vessel sprouts from aortic explants in comparison to DMSO treated control explant cultures,aortic explants; at 10 and 3 μM,significantly inhibited
same,Percent Induction (CD31 counts relative to vehicle + bFGF minus vehicle alone),[1],61%
same,Average number of blood vessels (CD31 counts),[1]; sponges excised Day 11,44
